Experimental data as given in US6372279B1, “Sweetener composition” (Ajinomoto Co., Inc., priority 1998, dated 2002).

Key:
[1] = in terms of weight ratio; cited from earlier work
[2] = Dissolution time in 900 ml water (20° C.), 1-L elution tester, Japanese Pharmacopoeia Paddle method, 100 rpm; type: physicochemical
Description: A predetermined amount of the sample was introduced into 900 ml water (20° C.) in a 1-L elution tester (the Japanese Pharmacopoeia, Paddle method, 100 rpm) and its dissolution time was measured (end point was visually confirmed).
Specifically, 1 g of the sample taken from each mixture consisting of NM C-type crystals (average particle size (diameter) of about 100 μm) and ACE-K raw powder (average particle size of about 20 μm) at a predetermined ratio (ACE-K content (% by weight)) shown in Table 1 below, was weighed and measured for its dissolution time. For comparison, 1.00 g, 0.90 g, 0.80 g, 0.50 g, 0.10 g, and 0.03 g samples were taken from said NM crystals and their dissolution times were determined in the same manner.
The dissolution times of mixtures of NM and ACE-K were measured in the same manner as in Experimental Example 1 except that NM A-type crystals were used in place of NM C-type crystals.
The sample amount for each mixture and the amount of NM alone (NM A-type crystals) were the same as that in Example 1.
The same NM crystals as those in Experimental Example 1 were used as NM, and the same ACE-K powder (average particle size (diameter) of about 20 μm) as that in Experimental Example 1 was used as ACE-K, and the dissolution times thereof were determined in the same manner as in Experimental Example 1.
That is, 0.5 g each of both of them was weighed (1.0 g in total) and introduced simultaneously without being previously mixed, into the elution tester (separate addition). For reference, the dissolution time of 0.5 g NM C-type crystals alone (Experimental Example 1) is also shown together in the table.

[3] = Quality of sweetness compared to sucrose (early taste, later taste, astringent taste); conditions: found by the present inventors
Description: It is reported that the sweetness strength or sweetening potency of the synthetic high-potency sweetener, NM, is about 10,000 times that of sucrose in terms of weight ratio (Japanese Patent Kohyou Publication JP-A-8-503206). […] Further, NM has a strong astringent taste. Accordingly, the balance of the quality of sweetness properties for NM is poor when compared to sucrose. Sucrose is generally regarded as the standard for evaluating the properties or characteristics of the quality of sweetness.

CC1=CC(=O)[N-]S(=O)(=O)O1.[K+] [ACE-K, Acesulfame K]
Sweetness strength or sweetening potency [1]: about 200 times that of sucrose

COC(=O)[C@H](Cc1ccccc1)NC(=O)[C@H](CC(=O)O)NCCC(C)(C)C [NM A-type crystals, N-{N-(3,3-dimethylbutyl)-L-α-aspartyl}-L-phenylalanine 1-methyl ester, reference compound]
Dissolution time ([2]; NM A-type crystals alone, 0.80 g in 900 ml water, 20° C.): 38 min

COC(=O)[C@H](Cc1ccccc1)NC(=O)[C@H](CC(=O)O)NCCC(C)(C)C [NM C-type crystals, N-{N-(3,3-dimethylbutyl)-L-α-aspartyl}-L-phenylalanine 1-methyl ester]
Dissolution time ([2]; NM C-type crystals alone, 0.80 g in 900 ml water, 20° C.): 58 min

COC(=O)[C@H](Cc1ccccc1)NC(=O)[C@H](CC(=O)O)NCCC(C)(C)C [NM, N-{N-(3,3-dimethylbutyl)-L-α-aspartyl}-L-phenylalanine 1-methyl ester]
Dissolution time ([2]; 0.51 g of NM alone (amount of equal sweetness to 1 g mixture containing 50% ACE-K)): about 60 minutes
Early taste ([3]; compared to sucrose): extremely weak
Later taste ([3]; compared to sucrose): extremely strong
Astringent taste [3]: strong
Sweetness strength or sweetening potency [1]: about 10,000 times that of sucrose
